According to US11839614B2, “Methods for treating or mitigating cardiotoxicity characterized by inhibition of adenosine A2 signaling and/or adenosine A2 receptor expression” (INTRA-CELLULAR THERAPIES, INC., priority 2018, dated 2023):

Tests used:
r-hPDE1A = target: T1, r-hPDE1A (Homo sapiens, UniProt P54750); experiment: Ki for full-length recombinant PDE1A; assay type: biochemical
T1 construct: Its Kis for full-length recombinant r-hPDE1A, 1B, and 1C are 34, 380, and 37 pM
Description: Additional pharmaceuticals used in the following examples are dobutamine (Hospira Inc., Lake Forest, Ill.), esmolol HCl (Mylan, Rockford, Ill.), MRS1754 (Tocris Bioscience, Bristol, UK), and Hespan (6% Hetastarch in 0.9% NaCl B. Braun Medical Inc., Bethlehem, Pa.).

[1] = system: normal and failing canine hearts; experiment: Conscious dog pressure-volume hemodynamic analysis, normal and failing hearts; assay type: in vivo
Description: Dogs are studied in the conscious state before and after inducing dilated cardiomyopathy by tachypacing for two weeks at 200 bpm. […]
Load insensitive indexes of contractility (dP/dtmax/IP and PRSW) increased.

plasma cAMP and cGMP = experiment: Plasma cAMP and cGMP by ELISA in dogs; assay type: in vivo, dog
Procedure: Blood plasma is obtained from these animals, and cAMP and cGMP are assayed by ELISA.

[2] = system: rabbit heart and vasculature; experiment: Anesthetized rabbit pressure-volume hemodynamics with or without esmolol or MRS-1754; assay type: in vivo
Description: Cyclic AMP is generated largely by transmembrane adenylyl cyclases activated via stimulatory G protein (Gs), with β-adrenergic, adenosine (primarily A2B), glucagon, prostanoids, histamine, and serotonin all coupling to Gs in cardiomyocytes. The present studies focus on beta-adrenergic and adenosine receptors, and for the latter, concentrated on the A2B receptor, which has been reported to directly stimulate cAMP-dependent contractility. […] Relaxation changes are also modest with LV preload (end-diastolic and volume) unaltered; however, the combined vasodilator-inotropic response doubled ventricular/arterial coupling ratio, Ees/Ea.
(§1) New Zealand White rabbits (male, 2-3 kg) are sedated with 35 mg/kg ketamine and 5 mg/kg xylazine, intubated and ventilated (Model 683, Harvard Apparatus, Holliston, Mass.), with anesthesia maintained with isoflurane inhalation (1-2%). A pressure-volume catheter (SPR-894, Millar, Inc., Houston, Tex.) is inserted via the common carotid artery and advanced to the LV apex, and a 2-Fr pacing catheter is positioned in the right atrium via the right jugular vein to provide atrial pacing. […] The parallel conductance is determined by the hypertonic saline injection method. Rabbits are infused with 6% hetastarch in saline during the procedure to stabilize arterial pressure.

[3] = Plasma level in rabbits (LC/MS-MS); assay type: in vivo; settings: male, New Zealand White, iv, rabbit, 0.1 mg/kg i.v.
Procedure: as §1
Intravenous blood is placed in K2EDTA tubes, centrifuged at 2,000 g for 15 min, plasma decanted, and stored frozen. Compound 1 levels are assessed by a rapid, sensitive liquid chromatography-tandem mass spectrometric (LC/MS-MS) method.
The mobile phase consists of a gradient of 60-100% methanol over 4.5 minutes in 5 mM ammonium bicarbonate with 0.2% NH3H2O, pumped at a flow rate of 0.8 mL/min. Analysis time is 4.5 min and both the analyte and internal standard eluted around 2.0 min. Multiple reactions monitoring (MRM) mode is used to detect Compound 1. MS is operated in the positive ion detection mode. […] The lower limit of quantification (LLOQ) for plasma was 0.02 ng/mL.

Plasma level in mice = assay type: in vivo; settings: iv, mouse, 15 minutes after i.v. dosing
Procedure: Rabbit dosing at 0.1 mg/kg i.v. yields plasma values of 213±88 ng/mL at 15 min. Mouse plasma levels 15 minutes after i.v. dosing was 334+/−74 ng/mL. Therapeutic levels are 100-300 ng/mL, and so analysis is presented after 120 min for P.O. and after 20 min for i.v. (somewhat sooner in rabbit and mouse due to faster kinetics).
(§2) To test this, mice were administered the same or higher intravenous bolus doses (0.1, 0.5 mg/kg) as used in dogs and rabbits, and studied using a similar preparation to the rabbit.

murine heart = experiment: Acute cardiovascular effects in intact mice; assay type: in vivo, mouse; settings: intravenous bolus 0.1, 0.5 mg/kg
Procedure: as §2

adult rabbit myocytes = experiment: Contraction and calcium transients in isolated rabbit cardiomyocytes; assay type: cell-based
Procedure: To test whether PDE1 inhibition directly impacts cardiomyocyte contraction and calcium transients, studies are carried out on normal adult rabbit myocytes. […] As PDE1 requires sufficient cAMP and Ca^2+ to be impactful, a dose response was performed to the adenylate cyclase activator, forskolin (FSK) to determine the lowest dose producing a modest but significant inotropic effect (1 μM).
Rabbit myocytes were isolated to determine the effect of PDE1 inhibition on cardiomyocyte contraction and whole cell Ca2+ transients, and to compare the results to those with a PDE3 inhibitor, cilostamide (Cil, 1 μM).
An alternative approach to augmenting cAMP independent of […] is to directly stimulate adenylate cyclase using forskolin (Fsk). A dose response study was carried out to identify a non-saturating Fsk dose that still generated significant inotropic effects (1 μM).

myocyte cAMP = experiment: Whole cell cAMP in isolated rabbit myocytes; assay type: cell-based; settings: agent added to Fsk
Description: This is consistent with prior studies showing locally generated cAMP from β-AR and its modulation by PDE3 occur in local subcellular domains that are not easily detected in whole cell lysates32.

[4] = control and HF dogs, 10 mg/kg oral, two hours
[5] = Compound 1 added after forskolin 1 μM
[6] = agent added to non-saturating Iso
[7] = agent alone: Cil 1 μM, Compound 1 1 μM, Iso non-saturating dose
[8] = agent alone: Iso 50 nM, Compound 1 up to 1 mM, IBMX 100 μM

T1 sequence (P54750 whole entry): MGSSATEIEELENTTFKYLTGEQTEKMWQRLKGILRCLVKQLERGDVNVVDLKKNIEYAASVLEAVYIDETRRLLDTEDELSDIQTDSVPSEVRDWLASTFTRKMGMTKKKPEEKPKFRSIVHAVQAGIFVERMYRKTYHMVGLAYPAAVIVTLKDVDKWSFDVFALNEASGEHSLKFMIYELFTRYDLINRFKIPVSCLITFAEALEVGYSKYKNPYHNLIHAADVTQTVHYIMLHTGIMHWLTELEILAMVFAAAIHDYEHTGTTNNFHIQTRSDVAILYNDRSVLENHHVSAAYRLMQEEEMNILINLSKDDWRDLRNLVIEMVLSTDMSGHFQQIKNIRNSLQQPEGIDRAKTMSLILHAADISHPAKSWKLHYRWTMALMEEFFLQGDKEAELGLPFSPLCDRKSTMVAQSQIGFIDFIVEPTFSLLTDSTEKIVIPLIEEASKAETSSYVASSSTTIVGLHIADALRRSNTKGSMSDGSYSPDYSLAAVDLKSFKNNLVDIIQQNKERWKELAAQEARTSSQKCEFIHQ

SMILES: CN1C(=O)c2c(nn(Cc3ccc(-c4cccc(F)n4)cc3)c2Nc2ccccc2)N2C1=N[C@@H]1CCC[C@@H]12 [Compound 1, (6aR,9aS)-2-(4-(6-fluoropyridin-2-yl)benzyl)-5-methyl-3-(phenyl-amino)-5,6a,7,8,9,9a-hexahydrocyclopenta-[4,5]imidazo[1,2-a]pyrazolo[4,3-e]pyrimidin-4-(2H)-one monophosphate]
- Ki (r-hPDE1A): 0.034 nM
- hemodynamic responses in all but heart rate ([1]; 0.01 mg/kg i.v.): negligible
- hemodynamic responses ([1]; 0.1 mg/kg i.v.): positive chronotropic, inotropic, lusitropic, and vasodilator responses were observed
- PV loop area (stroke work) and contractility ([1]; 10 mg/kg Compound 1 added to 10 μg/kg/min dobutamine, control and failing hearts): further enhanced both
- increase in heart rate ([1]; HF animals, 10 mg/kg oral): blunted
- augmentation of cardiac output ([1]; HF dogs, 10 mg/kg oral, two hours): 32%
- LV preload (end-diastolic volume) or systolic pressure [1, 4]: little change
- contractility (end-systolic elastance) [1, 4]: increase in contractility
- augmentation of cardiac output ([1]; control dogs, 10 mg/kg oral, two hours): 50%
- inotropy, lusitropy and vasodilation ([1]; heart failure dogs, 0.1 mg/kg i.v.): remained significantly improved
- time to peak hemodynamic response ([1]; intravenous, normal and HF dogs): 5 to 10 min
- heart rate ([1]; normal dogs, 10 mg/kg oral): increased heart rate
- relaxation (dP/dtmin and relaxation time constant tau) ([1]; normal dogs, 10 mg/kg oral): improved
- systemic vascular resistance ([1]; normal dogs, 10 mg/kg oral): reduced systemic vascular resistance
- systolic blood pressure ([1]; normal dogs, 10 mg/kg oral): without altering systolic blood pressure
- plasma cAMP (plasma cAMP and cGMP; HF dogs, single drugs): not significantly changed
- plasma cGMP (plasma cAMP and cGMP; all conditions, normal and HF models): remains unchanged
- cardiac output ([2]; 0.1 mg/kg i.v. bolus alone): increases cardiac output
- heart rate ([2]; 0.1 mg/kg i.v. bolus alone): modestly elevated heart rate
- rise in end-systolic elastance ([2]; 0.1 mg/kg i.v. bolus alone): 50%
- rise in pre-load recruitable stroke work ([2]; 0.1 mg/kg i.v. bolus alone): 50%
- systemic resistance ([2]; 0.1 mg/kg i.v. bolus alone): lowered systemic resistance
- systolic pressure ([2]; 0.1 mg/kg i.v. bolus alone): no change in systolic pressure
- contractile and vasodilation effects ([2]; Compound 1 after esmolol): remain intact
- heart rate ([2]; Compound 1 after esmolol): no longer increases HR
- responses with heart rate fixed compared with heart rate allowed to change ([2]; atrially paced at ~20% above sinus node rate): nearly identical responses
- concentration at 15 min [3]: 213 ± 88 ng/mL
- concentration at 15 min (Plasma level in mice): 334 ng/mL
- hemodynamic or cardiac changes (murine heart): failed to show any significant hemodynamic or cardiac changes
- peak calcium transient (adult rabbit myocytes; [5]): remains unaltered
- relaxation/calcium decay rates (adult rabbit myocytes; [5]): significantly increases
- sarcomere shortening (adult rabbit myocytes; [5]): significantly increases
- shortening of calcium relaxation time constant, as share of the maximal achieved with IBMX (adult rabbit myocytes; FSK+Compound 1 versus FSK+IBMX): 67%
- Ca2+ transient decay rate (adult rabbit myocytes; agent added to Fsk 1 μM): enhanced the Ca2+ decay rate similarly to Cil
- peak Ca2+ transient (adult rabbit myocytes; agent added to Fsk 1 μM): no corresponding increase in peak Ca2+ transient
- sarcomere shortening (adult rabbit myocytes; agent added to Fsk 1 μM): sarcomere shortening rose as with Cil
- peak-Ca2+ (adult rabbit myocytes; [6]): no longer significantly different from pre-Iso baseline
- sarcomere shortening (adult rabbit myocytes; [6]): did not change further
- decay kinetics / relaxation times (adult rabbit myocytes; [7]): this was not observed
- peak-Ca2+ transient (adult rabbit myocytes; [7]): this was not observed
- percent sarcomere shortening (adult rabbit myocytes; [7]): this was not observed
- contraction/calcium decay time or rates (adult rabbit myocytes; [8]): no effect
- peak Ca2+ transient (adult rabbit myocytes; [8]): no effect
- sarcomere shortening (adult rabbit myocytes; [8]): no effect
- whole cell cAMP (myocyte cAMP): substantially increased
